The target in test [1] is His-tagged KRAS G12D protein (Homo sapiens, UniProt P01116, G12D). Briefly: KRAS G12D TR-FRET Assay. The class given is binding. Summed up: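 His-KRAS G12D (20 nM) was preincubated with titrated compound for 30 min at RT in HEPES pH 7.4 buffer with MgCl2, 10 μM GDP. Biotin-KRPep-2d (20 nM) was then added for 1 h, followed by Eu-anti-His/streptavidin-d2 for 1 h. The 665/615 nm TR-FRET ratio was fitted 4-parameter to give IC50.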

Test [2] has as its system Phosphorylation of ERK1/2 in AsPC-1 cells. Briefly: Phospho-ERK1/2 MSD Assay. The conditions noted are these: Homo sapiens, ASPC1, 2 h, read-out: 2 h p-ERK (AsPC-1 cells), IC50, AsPC-1 cells, 2 h compound treatment. The class given is cell-based. Summed up: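 Phospho-ERK1/2 was quantified by MSD whole-cell lysate immunoassay in RIPA lysates made with protease/phosphatase inhibitors. A 4-parameter logistic model gave IC50.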

The target in test [3] is GDP-bound KRAS protein (aa 1-169), containing both G12D and C118A amino acid substitutions (Homo sapiens, UniProt P01116, C118A/G12D). As to the kind of experiment: KRAS G12D Coupled Nucleotide Exchange Assay. It is filed as biochemical. Here is the method:
KRAS G12D Coupled Nucleotide Exchange Assay
Following compound pre-incubation, purified SOS protein (aa 564-1049) and GTP (Roche 10106399001) were added to the assay wells and incubated for an additional 30 min. […] The assay plates were then read on a PerkinElmer EnVision Multilabel Reader, using AlphaScreen® technology, and data were analyzed using a 4-parameter logistic model to calculate IC50 values.

Chain of GDP-bound KRAS protein (aa 1-169), containing both G12D and C118A amino acid substitutions (P01116 1-169 isoform P01116-2 G12D/C118A): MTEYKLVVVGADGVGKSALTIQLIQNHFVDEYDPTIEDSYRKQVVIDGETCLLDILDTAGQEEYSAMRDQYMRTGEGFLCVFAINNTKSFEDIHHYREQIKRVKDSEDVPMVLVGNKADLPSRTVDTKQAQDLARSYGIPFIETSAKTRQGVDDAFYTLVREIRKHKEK
Chain of His-tagged KRAS G12D protein (P01116 1-188 isoform P01116-2 G12D): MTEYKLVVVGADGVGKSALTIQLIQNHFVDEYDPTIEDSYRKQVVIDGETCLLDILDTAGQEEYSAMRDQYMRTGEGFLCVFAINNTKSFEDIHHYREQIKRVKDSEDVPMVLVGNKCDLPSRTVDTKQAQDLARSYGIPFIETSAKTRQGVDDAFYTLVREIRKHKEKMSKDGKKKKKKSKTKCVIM

`CCc1c(F)ccc2cc(O)cc(-c3ccc4c(N5CCCC6(CNC(=O)O6)C5)nc(OC[C@@]56CCCN5C[C@H](F)C6)nc4c3F)c12` (stereo partly drawn) [Example 54, 7-(7-(8-Ethyl-7-fluoro-3-hydroxynaphthalen-1-yl)-8-fluoro-2-(((2R,7aS)-2-fluorotetrahydro-1H-pyrrolizin-7a(5H)-yl)methoxy)quinazolin-4-yl)-1-oxa-3,7-diazaspiro[4.5]decan-2-one]: the results for the concentration for half-maximal inhibition (IC50) in test [1], in test [2] and in test [3] were 3 nM, 23 nM and 4 nM, respectively.

`C[C@@]1(O)CCCN(c2nc(OC[C@@]34CCCN3C[C@H](F)C4)nc3c(F)c(-c4cc(N)cc(Cl)c4C(F)(F)F)ccc23)C1` [Example 60, (R)-1-(7-(5-Amino-3-chloro-2-(trifluoromethyl)phenyl)-8-fluoro-2-(((2R,7aS)-2-fluorotetrahydro-1H-pyrrolizin-7a(5H)-yl)methoxy)quinazolin-4-yl)-3-methylpiperidin-3-ol]: the IC50 in test [1] is 15 nM; in test [2] it was 1170 nM; in test [3], 12 nM.

For `C#Cc1c(F)ccc2cc(N)cc(-c3ccc4c(N5CCC[C@@](C)(O)C5)nc(OC[C@@]56CCCN5C[C@H](F)C6)nc4c3F)c12` [Example 65, (R)-1-(7-(3-Amino-8-ethynyl-7-fluoronaphthalen-1-yl)-8-fluoro-2-(((2R,7aS)-2-fluorotetrahydro-1H-pyrrolizin-7a(5H)-yl)methoxy)quinazolin-4-yl)-3-methylpiperidin-3-ol], the IC50 in test [1] was determined as 11 nM; in test [2], 260 nM; in test [3], 6 nM.

Turning to `CCc1c(F)ccc2cc(N)cc(-c3c(F)cc4c(N5CCCC(O)(C(F)F)C5)nc(OC[C@@]56CCCN5C[C@H](F)C6)nc4c3F)c12` (stereo partly drawn) [Example 68, 1-(7-(3-Amino-8-ethyl-7-fluoronaphthalen-1-yl)-6,8-difluoro-2-(((2R,7aS)-2-fluorotetrahydro-1H-pyrrolizin-7a(5H)-yl)methoxy)quinazolin-4-yl)-3-(difluoromethyl)piperidin-3-ol], the IC50 in test [1] came out at 436 nM; in test [2] it was 1930 nM; in test [3], 23 nM.

As for `C#Cc1c(F)ccc2cc(N)cc(-c3c(F)cc4c(N5CCCC6(CNC(=O)O6)C5)nc(OC[C@@]56CCCN5C[C@H](F)C6)nc4c3F)c12` (stereo partly drawn) [Example 69, 7-(7-(3-Amino-8-ethynyl-7-fluoronaphthalen-1-yl)-6,8-difluoro-2-(((2R,7aS)-2-fluorotetrahydro-1H-pyrrolizin-7a(5H)-yl)methoxy)quinazolin-4-yl)-1-oxa-3,7-diazaspiro[4.5]decan-2-one], the IC50 was found to be 11 nM in test [1], 175 nM in test [2] and 5 nM in test [3].

Turning to `C#Cc1c(F)ccc2cc(N)cc(-c3c(F)cc4c(N5CCOCC(C)(O)C5)nc(OC[C@@]56CCCN5C[C@H](F)C6)nc4c3F)c12` (stereo partly drawn) [Example 70, 4-(7-(3-Amino-8-ethynyl-7-fluoronaphthalen-1-yl)-6,8-difluoro-2-(((2R,7aS)-2-fluorotetrahydro-1H-pyrrolizin-7a(5H)-yl)methoxy)quinazolin-4-yl)-6-methyl-1,4-oxazepan-6-ol], the values for the IC50 in test [1], in test [2] and in test [3] were 19 nM, 185 nM and 4 nM, respectively.

As to `CCc1c(F)ccc2cc(N)cc(-c3c(F)cc4c(N5CCCC6(CNC(=O)O6)C5)nc(OC[C@@]56CCCN5C[C@H](F)C6)nc4c3F)c12` (stereo partly drawn) [Example 73, 7-(7-(3-Amino-8-ehtyl-7-fluoronaphthalen-1-yl)-6,8-difluoro-2-(((2R,7aS)-2-fluorotetrahydro-1H-pyrrolizin-7a(5H)-yl)methoxy)quinazolin-4-yl)-1-oxa-3,7-diazaspiro[4.5]decan-2-one], the IC50 in test [1] stood at 2 nM; in test [2] it was 90 nM; in test [3], 1 nM.

Regarding `CCc1c(F)ccc2cc(N)cc(-c3ccc4c(N5CCC[C@@](C)(O)C5)nc(OC[C@@]56CCCN5C[C@H](F)C6)nc4c3F)c12` [Example 74, (R)-1-(7-(3-Amino-8-ethyl-7-fluoronaphthalen-1-yl)-8-fluoro-2-(((2R,7aS)-2-fluorotetrahydro-1H-pyrrolizin-7a(5H)-yl)methoxy)quinazolin-4-yl)-3-methylpiperidin-3-ol], the results for the IC50 in test [1], in test [2] and in test [3] were 117 nM, 1050 nM and 10 nM, respectively.

Take `CCc1c(F)ccc2cc(N)cc(-c3c(F)cc4c(N5CCCC6(CCO6)C5)nc(OC[C@@]56CCCN5C[C@H](F)C6)nc4c3F)c12` (stereo partly drawn) [Example 75, 4-(6,8-Difluoro-2-(((2R,7aS)-2-fluorotetrahydro-1H-pyrrolizin-7a(5H)-yl)methoxy)-4-(1-oxa-6-azaspiro[3.5]nonan-6-yl)quinazolin-7-yl)-5-ethyl-6-fluoronaphthalen-2-amine]: the IC50 in test [1] worked out at 154 nM; in test [2], 500 nM; in test [3], 9 nM.

With `CCc1cccc2cc(O)cc(-c3c(F)cc4c(N5CCC[C@]6(CCO6)C5)nc(OC[C@@]56CCCN5C[C@H](F)C6)nc4c3F)c12` [Example 77, 4-(6,8-Difluoro-2-(((2R,7aS)-2-fluorotetrahydro-1H-pyrrolizin-7a(5H)-yl)methoxy)-4-((S)-1-oxa-6-azaspiro[3.5]nonan-6-yl)quinazolin-7-yl)-5-ethylnaphthalen-2-ol], the half-maximal inhibitory concentration (IC50) in test [1] was 6 nM; in test [2], 29 nM; in test [3], 4 nM.

In the case of `Oc1cc(-c2c(F)cc3c(N4CCC[C@]5(CCO5)C4)nc(OC[C@@]45CCCN4C[C@H](F)C5)nc3c2F)c2c(Cl)c(F)ccc2c1` [Example 78, 5-Chloro-4-(6,8-difluoro-2-(((2R,7aS)-2-fluorotetrahydro-1H-pyrrolizin-7a(5H)-yl)methoxy)-4-((S)-1-oxa-6-azaspiro[3.5]nonan-6-yl)quinazolin-7-yl)-6-fluoronaphthalen-2-ol], the IC50 in test [1] came out at 5 nM; in test [2], 16 nM; in test [3], 3 nM.

On to `Oc1cc(-c2c(F)cc3c(N4CCC[C@]5(CCO5)C4)nc(OC[C@@]45CCCN4C[C@H](F)C5)nc3c2F)c2c(F)c(F)ccc2c1` [Example 79, 4-(6,8-Difluoro-2-(((2R,7aS)-2-fluorotetrahydro-1H-pyrrolizin-7a(5H)-yl)methoxy)-4-((S)-1-oxa-6-azaspiro[3.5]nonan-6-yl)quinazolin-7-yl)-5,6-difluoronaphthalen-2-ol], for which the IC50 in test [1] was found to be 9 nM; in test [2], 33 nM; in test [3] it was 5 nM.

For the compound `O=C1NCC2(CCCN(c3nc(OC[C@@]45CCCN4C[C@H](F)C5)nc4c(F)c(-c5cc(O)cc(Cl)c5C5CC5)ccc34)C2)O1` (stereo partly drawn) [Example 83, 7-(7-(3-Chloro-2-cyclopropyl-5-hydroxyphenyl)-8-fluoro-2-(((2R,7a5)-2-fluorotetrahydro-1H-pyrrolizin-7a(5H)-yl)methoxy)quinazolin-4-yl)-1-oxa-3,7-diazaspiro[4.5]decan-2-one], the IC50 in test [1] was determined as 10 nM; in test [2], 58 nM; in test [3], 5 nM.

Consider `O=C1NC[C@]2(CCCN(c3nc(OC[C@@]45CCCN4C[C@H](F)C5)nc4c(F)c(-c5cc(O)cc(Cl)c5C5CC5)ccc34)C2)O1` [Example 84, (S)-7-(7-(3-Chloro-2-cyclopropyl-5-hydroxyphenyl)-8-fluoro-2-(((2R,7aS)-2-fluorotetrahydro-1H-pyrrolizin-7a(5H)-yl)methoxy)quinazolin-4-yl)-1-oxa-3,7-diazaspiro[4.5]decan-2-one], for which the IC50 came out at 5 nM in test [1], 72 nM in test [2] and 2 nM in test [3].

Consider `CCc1c(F)ccc2cccc(-c3ccc4c(N5CCCC6(CNC(=O)O6)C5)nc(OC[C@@]56CCCN5C[C@H](F)C6)nc4c3F)c12` (stereo partly drawn) [Example 85, 7-(7-(8-Ethyl-7-fluoronaphthalen-1-yl)-8-fluoro-2-(((2R,7aS)-2-fluorotetrahydro-1H-pyrrolizin-7a(5H)-yl)methoxy)quinazolin-4-yl)-1-oxa-3,7-diazaspiro[4.5]decan-2-one], for which the IC50 turned out to be 7 nM in test [1], 85 nM in test [2] and 7 nM in test [3].

On to `CCc1c(F)ccc2cc(O)cc(-c3ccc4c(N5CCC[C@]6(C5)C[C@@H](O)C6)nc(OC[C@@]56CCCN5C[C@H](F)C6)nc4c3F)c12` [Example 87, (2S,4s)-6-(7-(8-Ethyl-7-fluoro-3-hydroxynaphthalen-1-yl)-6,8-difluoro-2-(((2R,7a.S)-2-fluorotetrahydro-1H-pyrrolizin-7a(5H)-yl)methoxy)quinazolin-4-yl)-6-azaspiro[3.5]nonan-2-ol], for which the results for the half-maximal inhibitory concentration (IC50) in test [1], in test [2] and in test [3] were 5 nM, 55 nM and 3 nM, respectively.

In the case of `CCc1c(F)ccc2cc(O)cc(-c3c(F)cc4c(N5CCCC6(CCC(=O)O6)C5)nc(OC[C@@]56CCCN5C[C@H](F)C6)nc4c3F)c12` (stereo partly drawn) [Example 92, 7-(7-(8-Ethyl-7-fluoro-3-hydroxynaphthalen-1-yl)-6,8-difluoro-2-(((2R,7aS)-2-fluorotetrahydro-1H-pyrrolizin-7a(5H)-yl)methoxy)quinazolin-4-yl)-1-oxa-7-azaspiro[4.5]decan-2-one], the values for the 50% inhibitory concentration (IC50) in test [1], in test [2] and in test [3] were 7 nM, 28 nM and 5 nM, respectively.

The record behind these values is patent publication US20250179077A1, “QUINAZOLINE COMPOUNDS AND USES THEREOF AS INHIBITORS OF MUTANT KRAS PROTEINS” (AMGEN INC., priority 2022, published 2025).
